In PubChem BioAssay AID1259407 (Chemical Carcinogenesis Research Information System (CCRIS), 2018):
Calls of active or inactive are those of the source. The rule behind the calls is not given here.

Test system: CCRIS mutagenicity, Ames/micronucleus/aberration tests
Test: CCRIS mutagenicity studies
[1] = Test System: AMES SALMONELLA TYPHIMURIUM, Strain/Indicator: TA98, Metabolic Activation: NONE, Method: PREINCUBATION
[2] = Test System: AMES SALMONELLA TYPHIMURIUM, Strain/Indicator: TA100, Metabolic Activation: NONE, Method: PREINCUBATION
[3] = Test System: AMES SALMONELLA TYPHIMURIUM, Strain/Indicator: TA1535, Metabolic Activation: NONE, Method: PREINCUBATION
[4] = Test System: AMES SALMONELLA TYPHIMURIUM, Strain/Indicator: TA1537, Metabolic Activation: NONE, Method: PREINCUBATION

For C=C(C)C(=O)OCC(C)C, the mutagenic call (Test System: AMES SALMONELLA TYPHIMURIUM, Strain/Indicator: TA98, Metabolic Activation: HAMSTER, LIVER, S-9, AROCLOR 1254 (10%), Method: PREINCUBATION) was “inactive; negative”, the mutagenic call [1] was “inactive; negative” and the mutagenic call (Test System: AMES SALMONELLA TYPHIMURIUM, Strain/Indicator: TA98, Metabolic Activation: RAT, LIVER, S-9, AROCLOR 1254 (10%), Method: PREINCUBATION) was “inactive; negative”. For the same molecule, the mutagenic call (Test System: AMES SALMONELLA TYPHIMURIUM, Strain/Indicator: TA100, Metabolic Activation: HAMSTER, LIVER, S-9, AROCLOR 1254 (10%), Method: PREINCUBATION) was “inactive; negative”, the mutagenic call [2] was “inactive; negative” and the mutagenic call (Test System: AMES SALMONELLA TYPHIMURIUM, Strain/Indicator: TA100, Metabolic Activation: RAT, LIVER, S-9, AROCLOR 1254 (10%), Method: PREINCUBATION) was “inactive; negative”. The mutagenic call (Test System: AMES SALMONELLA TYPHIMURIUM, Strain/Indicator: TA1535, Metabolic Activation: HAMSTER, LIVER, S-9, AROCLOR 1254 (10%), Method: PREINCUBATION) was “inactive; negative”, the mutagenic call [3] was “inactive; negative” and the mutagenic call (Test System: AMES SALMONELLA TYPHIMURIUM, Strain/Indicator: TA1535, Metabolic Activation: RAT, LIVER, S-9, AROCLOR 1254 (10%), Method: PREINCUBATION) was “inactive; negative”. For the same molecule, the mutagenic call (Test System: AMES SALMONELLA TYPHIMURIUM, Strain/Indicator: TA1537, Metabolic Activation: HAMSTER, LIVER, S-9, AROCLOR 1254 (10%), Method: PREINCUBATION) was “inactive; negative”, the mutagenic call [4] was “inactive; negative” and the mutagenic call (Test System: AMES SALMONELLA TYPHIMURIUM, Strain/Indicator: TA1537, Metabolic Activation: RAT, LIVER, S-9, AROCLOR 1254 (10%), Method: PREINCUBATION) was “inactive; negative”.

In the case of CCCCCCCCCCCCCCCCCC(=O)NCCCC[C@@H](NC(=O)CC[C@@H](NC(=O)[C@H](C)NC(=O)[C@@H](C)O[C@H]1[C@H](O)[C@@H](CO)OC(O)[C@@H]1NC(C)=O)C(N)=O)C(=O)O (some centres undefined), the mutagenic call [1] is reported as “inactive; negative”, the mutagenic call (Test System: AMES SALMONELLA TYPHIMURIUM, Strain/Indicator: TA98, Metabolic Activation: RAT, LIVER, S-9, KC-500, Method: PREINCUBATION) is reported as “inactive; negative” and the mutagenic call [2] is reported as “inactive; negative”. For the same molecule, the mutagenic call (Test System: AMES SALMONELLA TYPHIMURIUM, Strain/Indicator: TA100, Metabolic Activation: RAT, LIVER, S-9, KC-500, Method: PREINCUBATION) was “inactive; negative”, the mutagenic call [3] was “inactive; negative” and the mutagenic call (Test System: AMES SALMONELLA TYPHIMURIUM, Strain/Indicator: TA1535, Metabolic Activation: RAT, LIVER, S-9, KC-500, Method: PREINCUBATION) was “inactive; negative”. For the same molecule, the mutagenic call [4] was “inactive; negative”, the mutagenic call (Test System: AMES SALMONELLA TYPHIMURIUM, Strain/Indicator: TA1537, Metabolic Activation: RAT, LIVER, S-9, KC-500, Method: PREINCUBATION) was “inactive; negative” and the mutagenic call (Test System: AMES SALMONELLA TYPHIMURIUM, Strain/Indicator: TA1538, Metabolic Activation: NONE, Method: PREINCUBATION) was “inactive; negative”. For the same molecule, the mutagenic call (Test System: AMES SALMONELLA TYPHIMURIUM, Strain/Indicator: TA1538, Metabolic Activation: RAT, LIVER, S-9, KC-500, Method: PREINCUBATION) was “inactive; negative”, the mutagenic call (Test System: E. COLI, Strain/Indicator: WP2 UVRA, Metabolic Activation: NONE, Method: PREINCUBATION) was “inactive; negative” and the mutagenic call (Test System: E. COLI, Strain/Indicator: WP2 UVRA, Metabolic Activation: RAT, LIVER, S-9, KC-500, Method: PREINCUBATION) was “inactive; negative”.

For CC(C)Cl, the mutagenic call (End Point: In vitro micronucleus, Test System: Chinese Hamster Ovary (CHO-WBL) cells, Metabolic Activation: None) was “inactive; negative”, the mutagenic call (Test System: AMES SALMONELLA TYPHIMURIUM, Strain/Indicator: TA100, Metabolic Activation: NONE, Method: DESICCATOR) was “active; positive” and the mutagenic call (Test System: AMES SALMONELLA TYPHIMURIUM, Strain/Indicator: TA100, Metabolic Activation: RAT, LIVER, S-9, AROCLOR 1254, Method: DESICCATOR) was “active; positive”.

In the case of [N-]=[N+]=NCC(=O)O, the mutagenic call (Test System: AMES SALMONELLA TYPHIMURIUM, Strain/Indicator: TA1530, Metabolic Activation: NONE, Method: STANDARD PLATE) is reported as “inactive; negative”.

Cc1cc(Cc2cc(C)cc(C(C)(C)C)c2O)c(O)c(C(C)(C)C)c1 was tested, and the mutagenic call (Test System: AMES SALMONELLA TYPHIMURIUM, Strain/Indicator: TA98, Metabolic Activation: NONE, Method: STANDARD PLATE) was “inactive; negative”, the mutagenic call (Test System: AMES SALMONELLA TYPHIMURIUM, Strain/Indicator: TA98, Metabolic Activation: S-9, Method: STANDARD PLATE) was “inactive; negative” and the mutagenic call (Test System: AMES SALMONELLA TYPHIMURIUM, Strain/Indicator: TA100, Metabolic Activation: NONE, Method: STANDARD PLATE) was “inactive; negative”. For the same molecule, the mutagenic call (Test System: AMES SALMONELLA TYPHIMURIUM, Strain/Indicator: TA100, Metabolic Activation: S-9, Method: STANDARD PLATE) was “inactive; negative”.

For C=C(C)C(=O)OCCCCCCCC(C)C, the mutagenic call (Test System: AMES SALMONELLA TYPHIMURIUM, Strain/Indicator: TA97, Metabolic Activation: HAMSTER, LIVER, S-9, AROCLOR 1254 (10 OR 30%), Method: PREINCUBATION) was “inactive; negative”, the mutagenic call (Test System: AMES SALMONELLA TYPHIMURIUM, Strain/Indicator: TA97, Metabolic Activation: NONE, Method: PREINCUBATION) was “inactive; negative” and the mutagenic call (Test System: AMES SALMONELLA TYPHIMURIUM, Strain/Indicator: TA97, Metabolic Activation: RAT, LIVER, S-9, AROCLOR 1254 (10 OR 30%), Method: PREINCUBATION) was “inactive; negative”. The mutagenic call (Test System: AMES SALMONELLA TYPHIMURIUM, Strain/Indicator: TA98, Metabolic Activation: HAMSTER, LIVER, S-9, AROCLOR 1254 (10 OR 30%), Method: PREINCUBATION) was “inactive; negative”, the mutagenic call [1] was “inactive; negative” and the mutagenic call (Test System: AMES SALMONELLA TYPHIMURIUM, Strain/Indicator: TA98, Metabolic Activation: RAT, LIVER, S-9, AROCLOR 1254 (10 OR 30%), Method: PREINCUBATION) was “inactive; negative”. For the same molecule, the mutagenic call (Test System: AMES SALMONELLA TYPHIMURIUM, Strain/Indicator: TA100, Metabolic Activation: HAMSTER, LIVER, S-9, AROCLOR 1254 (10 OR 30%), Method: PREINCUBATION) was “inactive; negative”, the mutagenic call [2] was “inactive; negative” and the mutagenic call (Test System: AMES SALMONELLA TYPHIMURIUM, Strain/Indicator: TA100, Metabolic Activation: RAT, LIVER, S-9, AROCLOR 1254 (10 OR 30%), Method: PREINCUBATION) was “inactive; negative”. For the same molecule, the mutagenic call (Test System: AMES SALMONELLA TYPHIMURIUM, Strain/Indicator: TA1535, Metabolic Activation: HAMSTER, LIVER, S-9, AROCLOR 1254 (10 OR 30%), Method: PREINCUBATION) was “inactive; negative”, the mutagenic call [3] was “inactive; negative” and the mutagenic call (Test System: AMES SALMONELLA TYPHIMURIUM, Strain/Indicator: TA1535, Metabolic Activation: RAT, LIVER, S-9, AROCLOR 1254 (10 OR 30%), Method: PREINCUBATION) was “inactive; negative”.
